Laboratory results as given in US20110190365A1, “Insecticidal 4-phenyl-1H-pyrazoles” (Bayer Crop Science AG, priority 2008, published 2011).

Experiment: log P by HPLC on a reversed-phase column (C18), EEC Directive 79/831 Annex V.A8
Type: physicochemical
Settings: HCOOH
Protocol: The stated log P values were determined in accordance with EEC Directive 79/831 Annex V.A8 by HPLC (High Performance Liquid Chromatography) using a reversed-phase column (C18).

Compound	log P (HCOOH)
CC(=O)Nc1c(-c2cc(Cl)cc(Cl)c2)c(C(F)(F)F)nn1-c1ccc(C(=O)NCc2ccccn2)c(C)c1 [I-A-Q2-197]	I-A-Q2-197: log P (HCOOH): 2.76
Cc1cc(-n2nc(C(F)(F)F)c(-c3cc(Cl)cc(Cl)c3)c2N)ccc1C(=O)NCc1cc(F)cc(F)c1 [I-A-Q2-040]	I-A-Q2-040: log P (HCOOH): 4.57
CC(NC(=O)c1ccc(-n2nc(C(F)(F)F)c(-c3ccc(Cl)cc3)c2N)cc1)c1ccccn1 (stereo not drawn) [I-A-Q2-165]	I-A-Q2-165: log P (HCOOH): 2.72
Cc1cc(-n2nc(C)c(-c3cccc(Cl)c3)c2N)ccc1C(=O)NCc1ccccn1 [I-A-Q2-371]	I-A-Q2-371: log P (HCOOH): 1.88
Cc1cc(-n2nc(C(F)(F)F)c(-c3cc(Cl)cc(Cl)c3)c2N)ccc1C(=O)NC(c1ccccc1)C(F)(F)F (stereo not drawn) [I-A-Q2-241]	I-A-Q2-241: log P (HCOOH): 4.89
Cc1cc(-n2nc(C(F)(F)F)c(-c3cc(Cl)c4c(c3)OCO4)c2N)ccc1C(=O)NCC(F)(F)C(F)F [I-A-Q2-293]	I-A-Q2-293: log P (HCOOH): 3.11
Cc1cc(-n2nc(C(F)(F)F)c(Br)c2N)ccc1C(=O)NCc1ccccn1 [XI-A-093]	XI-A-093: log P (HCOOH): 1.98
Cc1cc(-n2nc(C(F)(F)C(F)(F)F)c(-c3cc(C(F)(F)F)cc(C(F)(F)F)c3)c2N)ccc1C(=O)NCC(F)(F)C(F)F [I-A-Q2-343]	I-A-Q2-343: log P (HCOOH): 4.57
Cc1cc(-n2nc(C(F)(F)F)c(-c3cc(Cl)cc(Cl)c3)c2N)ccc1C(=O)NC1CCC1 [I-A-Q2-239]	I-A-Q2-239: log P (HCOOH): 4.17
Cc1cc(-n2nc(C(F)(F)F)c(-c3cc(Cl)cc(Cl)c3)c2N)ccc1C(=O)NCc1ccc(F)cn1 [I-A-Q2-039]	I-A-Q2-039: log P (HCOOH): 3.94
Cc1cc(-n2nc(C(F)(F)F)cc2N)ccc1C(=O)O [XI-A-084]	XI-A-084: log P (HCOOH): 3.53
Nc1c(-c2cc(Cl)cc(Cl)c2)c(C(F)(F)F)nn1-c1ccc(C(=O)NCc2cccnc2)cc1 [I-A-Q2-143]	I-A-Q2-143: log P (HCOOH): 2.59
CNC(=O)c1ccc(-n2nc(C(F)(F)F)c(-c3cc(Cl)cc(Cl)c3)c2N)cc1 [I-A-Q2-193]	I-A-Q2-193: log P (HCOOH): 3.42
Nc1c(-c2cc(Cl)cc(Cl)c2)c(C(F)(F)F)nn1-c1ccc(C(=O)NCCC(F)(F)F)cc1 [I-A-Q2-139]	I-A-Q2-139: log P (HCOOH): 4.25
Cc1cc(-n2nc(C(F)(F)F)c(-c3cc(Cl)cc(Cl)c3)c2N)ccc1C(=O)NC1CCCC1 [I-A-Q2-223]	I-A-Q2-223: log P (HCOOH): 4.45
Cc1cc(-n2nc(C(F)(F)F)c(-c3cc(C(F)(F)F)cc(C(F)(F)F)c3)c2N)ccc1C(=O)NCC(F)(F)C(F)F [I-A-Q2-318]	I-A-Q2-318: log P (HCOOH): 4.23

Same assay, conditions: HCOOH; Table 4, compounds of formula I-A-Q4

Compound	log P (HCOOH)
Nc1c(-c2cc(Cl)cc(C(F)(F)F)c2)c(C(F)(F)F)nn1-c1ccc(Cl)cn1 [I-A-Q4-016]	I-A-Q4-016: log P (HCOOH): 5.76
Nc1c(-c2cc(Cl)cc(Cl)c2)c(C(F)(F)F)nn1-c1ccc(S(=O)(=O)NC2CC2)c(Cl)c1 [I-A-Q4-110]	I-A-Q4-110: log P (HCOOH): 4.49

Same assay, conditions: HPLC, reversed-phase C18, mobile phase with formic acid

Compound	log P (HCOOH)
Cc1nn(-c2ccc(-n3cncn3)c(C#N)c2)c(N)c1-c1cc(F)ccc1F [I-A-Q1-061]	I-A-Q1-061: log P (HCOOH): 2.29
Cc1nn(-c2ccc(-n3cncn3)c(C#N)c2)c(N)c1-c1c(Cl)cccc1Cl [I-A-Q1-055]	I-A-Q1-055: log P (HCOOH): 2.47
CCNC(=O)NCc1ccc(-n2nc(C(F)(F)F)c(-c3cc(Cl)cc(Cl)c3)c2N)cc1Cl [I-A-Q3-024]	I-A-Q3-024: log P (HCOOH): 3.85
N#Cc1cc(-n2nc(C(F)(F)F)c(-c3cccc(F)c3)c2N)ccc1-n1cncn1 [I-A-Q1-042]	I-A-Q1-042: log P (HCOOH): 2.84
Cc1nc(C(F)(F)F)nn1-c1ccc(-n2nc(C(F)(F)F)c(-c3cc(Cl)cc(Cl)c3)c2N)cc1C#N [I-A-Q1-086]	I-A-Q1-086: log P (HCOOH): 4.57
Nc1c(-c2cc(Cl)cc(Cl)c2)c(C(F)(F)F)nn1-c1ccc(CNC(=O)C2CC2)c(Cl)c1 [I-A-Q3-022]	I-A-Q3-022: log P (HCOOH): 4.12
